{"source": "patent EP0579733B1", "about": "“THIAZOLIDINEDIONE DERIVATIVES, PRODUCTION AND USE THEREOF” (priority 1991, dated 1992)", "key": {"KKA^y-mice": {"tested_on": "KKA^y-mice", "test": "Hypoglycemic and hypolipidemic activities in mice", "format": "in vivo", "conditions": "0.005% by weight in chow diet, given freely for 4 days, KKA^y-mice (male, 9 to 10 weeks old); for Hypoglycemic activity (%): % reduction of blood sugar level from control groups, glucose oxidase method; for Hypolipidemic activity (%): % reduction of plasma lipid level from control groups, Kit Cleantech TG-S", "experimental": "Test compounds were mixed with laboratory chow diet (CE-2, Clea Japan Inc., Tokyo, Japan) in a proportion of 0.005% by weight. The dietary admixture was given freely to KKA^y-mice (male, 9 to 10 weeks old) for 4 days. During the period, water was given freely. Blood was collected from the orbitral venous plexus. The blood sugar level was determined according to glucose oxidase method. The plasma lipid level was enzymatically determined by using Kit Cleantech TG-S (Iatron, Tokyo, Japan). Values represent % reduction from control groups."}, "mice": {"tested_on": "mice", "test": "Toxicity after oral administration to mice (lethality)", "format": "in vivo", "conditions": "orally administered to mice in a dose of 300 mg/kg", "source_text": "The compound (I), the pharmacologically acceptable salt thereof, or the pure stereoisomeric form thereof has hypoglycemic and hypolipidemic activities. Further, the compound (I), the pharmacologically acceptable salt thereof or the pure stereoisomeric form thereof has low toxicity. […] Therefore, the compound (I), its pharmacologically acceptable salt or pure stereoisomeric form can be used for treatment of diabetes of mammals including man as it is or by combining with a known pharmacologically acceptable carrier, excipient, filler and the like."}}, "data": [{"compound": "CC(O)c1ccc(CCOc2ccc(CC3SC(=O)NC3=O)cc2)nc1", "note": "(stereo not drawn) [Example 1, 5-[4-[2-[5-(l-hydroxyethyl)-2-pyridyl]ethoxy]benzyl]-2,4-thiazolidinedione]", "values": [{"measurement": "Hypoglycemic activity (%)", "setting": "KKA^y-mice", "result": 46, "unit": "%"}, {"measurement": "Hypolipidemic activity (%)", "setting": "KKA^y-mice", "result": 5, "unit": "%"}, {"measurement": "lethality", "setting": "mice", "result": "no lethal case was observed"}]}, {"compound": "CC(=O)c1ccc(CCOc2ccc(CC3SC(=O)NC3=O)cc2)nc1", "note": "(stereo not drawn) [Example 2, 5-[4-[2-(5-acetyl-2-pyridyl)ethoxy]benzyl]-2,4-thiazolidinedione]", "values": [{"measurement": "Hypoglycemic activity (%)", "setting": "KKA^y-mice", "result": 56, "unit": "%"}, {"measurement": "Hypolipidemic activity (%)", "setting": "KKA^y-mice", "result": 43, "unit": "%"}, {"measurement": "lethality", "setting": "mice", "result": "no lethal case was observed"}]}]}
